From US11622991B2, “Protocol for treatment of lupus nephritis” (Aurinia Pharmaceuticals Inc., priority 2017, dated 2023)

System: lupus nephritis
Assay: Predictability of week 48 partial remission from early reduction in UPCR (Tables 4-8)
Type: in vivo, human
Protocol: In the study reported in Example 1, the predictability of outcomes based on markers at early time points were determined.
This is important because it is undesirable to subject a patient to unnecessary treatment, even if the treatment is relatively safe.
PR is defined as at least 50% reduction in proteinuria (i.e. UPCR).
Sensitivity is defined as the probability that a subject showing PR at 48 weeks would have shown a favorable result with regard to the marker at the designated early time point. In the tables below, this is the ratio of the number of subjects with favorable marker results (early drop or normalization) to the total subjects with 48 week PR.
Specificity is defined as the probability that a subject not showing PR at 48 weeks would have shown an unfavorable result with regard to the marker at the designated early time point. In the tables below, this is the ratio of the number of subjects with unfavorable marker results (no early drop or no normalization) to the total subjects with no 48 week PR.
Positive predictive value is defined as the probability that a subject showing a favorable result with respect to the marker at an earlier time point would show PR at 48 weeks. In the tables below, this is the ratio of the number of subjects with favorable marker results who have 48 week PR to those with favorable marker results (early reduction or yes column).
Negative predictive value is defined as the probability that a subject showing an unfavorable result with respect to the marker at an earlier time point would not show PR at 48 weeks. In the tables below, this is the ratio of the number of subjects with unfavorable marker results who have no PR at 48 weeks to the total subjects with unfavorable marker results (no early reduction or no column).

[1] = 15% reduction in UPCR, Week 2, 23.7 mg BID
[2] = 15% reduction in UPCR, Week 2, 39.5 mg BID
[3] = 15% reduction in UPCR, Week 4, 23.7 mg BID
[4] = 15% reduction in UPCR, Week 6, 39.5 mg BID
[5] = 15% reduction in UPCR, Week 8, 39.5 mg BID
[6] = 15% reduction in UPCR, Week 12, 23.7 mg BID
[7] = 15% reduction in UPCR, Week 12, 39.5 mg BID
[8] = 15% reduction in UPCR, Week 16, 23.7 mg BID
[9] = 15% reduction in UPCR, Week 20, 23.7 mg BID
[10] = 15% reduction in UPCR, Week 20, 39.5 mg BID
[11] = 15% reduction in UPCR, Week 24, 23.7 mg BID
[12] = 15% reduction in UPCR, Week 26, 23.7 mg BID
[13] = 15% reduction in UPCR, Week 26, 39.5 mg BID
[14] = 15% reduction in UPCR, Week 36, 23.7 mg BID
[15] = 15% reduction in UPCR, Week 36, 39.5 mg BID
[16] = 15% reduction in UPCR, Week 48, 23.7 mg BID
[17] = 20% reduction in UPCR, Week 2, 23.7 mg BID
[18] = 20% reduction in UPCR, Week 2, 39.5 mg BID
[19] = 20% reduction in UPCR, Week 4, 23.7 mg BID
[20] = 20% reduction in UPCR, Week 6, 23.7 mg BID
[21] = 20% reduction in UPCR, Week 8, 23.7 mg BID
[22] = 20% reduction in UPCR, Week 8, 39.5 mg BID
[23] = 20% reduction in UPCR, Week 12, 23.7 mg BID
[24] = 20% reduction in UPCR, Week 12, 39.5 mg BID
[25] = 20% reduction in UPCR, Week 16, 23.7 mg BID
[26] = 20% reduction in UPCR, Week 20, 23.7 mg BID
[27] = 20% reduction in UPCR, Week 20, 39.5 mg BID
[28] = 20% reduction in UPCR, Week 24, 23.7 mg BID
[29] = 20% reduction in UPCR, Week 26, 23.7 mg BID
[30] = 20% reduction in UPCR, Week 26, 39.5 mg BID
[31] = 20% reduction in UPCR, Week 36, 23.7 mg BID
[32] = 20% reduction in UPCR, Week 36, 39.5 mg BID
[33] = 20% reduction in UPCR, Week 48, 23.7 mg BID
[34] = 25% reduction in UPCR, Week 2, 23.7 mg BID
[35] = 25% reduction in UPCR, Week 2, 39.5 mg BID
[36] = 25% reduction in UPCR, Week 4, 23.7 mg BID
[37] = 25% reduction in UPCR, Week 6, 23.7 mg BID
[38] = 25% reduction in UPCR, Week 8, 23.7 mg BID
[39] = 25% reduction in UPCR, Week 8, 39.5 mg BID
[40] = 25% reduction in UPCR, Week 12, 23.7 mg BID
[41] = 25% reduction in UPCR, Week 12, 39.5 mg BID
[42] = 25% reduction in UPCR, Week 16, 23.7 mg BID
[43] = 25% reduction in UPCR, Week 20, 23.7 mg BID
[44] = 25% reduction in UPCR, Week 20, 39.5 mg BID
[45] = 25% reduction in UPCR, Week 24, 23.7 mg BID
[46] = 25% reduction in UPCR, Week 24, 39.5 mg BID

C=C/C=C/C[C@@H](C)[C@@H](O)[C@H]1C(=O)N[C@@H](CC)C(=O)N(C)CC(=O)N(C)[C@@H](CC(C)C)C(=O)N[C@@H](C(C)C)C(=O)N(C)[C@@H](CC(C)C)C(=O)N[C@@H](C)C(=O)N[C@H](C)C(=O)N(C)[C@@H](CC(C)C)C(=O)N(C)[C@@H](CC(C)C)C(=O)N(C)[C@@H](C(C)C)C(=O)N1C [voclosporin]
Early Reduction No [1]: 30
No Week 48 Partial Remission Early Drop [1]: 10
Week 48 Partial Remission No Early Drop [1]: 16
Early Reduction No [2]: 30
No Week 48 Partial Remission No Early Drop [2]: 9
No Week 48 Partial Remission No Early Drop [3]: 11
Week 48 Partial Remission No Early Drop [3]: 9
No Week 48 Partial Remission No Early Drop [4]: 4
Week 48 Partial Remission No Early Drop [4]: 10
No Week 48 Partial Remission No Early Drop (15% reduction in UPCR, Week 8, 23.7 mg BID): 7
Early Reduction No [5]: 9
No Week 48 Partial Remission No Early Drop [5]: 4
No Week 48 Partial Remission No Early Drop [6]: 4
Week 48 Partial Remission No Early Drop [6]: 2
Early Reduction No [7]: 9
No Week 48 Partial Remission No Early Drop [7]: 4
Early Reduction No [8]: 8
Week 48 Partial Remission No Early Drop [8]: 3
Early Reduction No (15% reduction in UPCR, Week 16, 39.5 mg BID): 11
Early Reduction No [9]: 3
No Week 48 Partial Remission No Early Drop [9]: 3
Early Reduction No [10]: 9
Week 48 Partial Remission No Early Drop [10]: 4
Early Reduction No [11]: 2
No Week 48 Partial Remission No Early Drop [11]: 2
Early Reduction No (15% reduction in UPCR, Week 24, 39.5 mg BID): 10
Early Reduction No [12]: 3
No Week 48 Partial Remission Early Drop [12]: 9
No Week 48 Partial Remission No Early Drop [12]: 3
Early Reduction No [13]: 4
No Week 48 Partial Remission No Early Drop [13]: 4
Early Reduction No [14]: 4
No Week 48 Partial Remission Early Drop [14]: 10
No Week 48 Partial Remission No Early Drop [14]: 3
Week 48 Partial Remission No Early Drop [14]: 1
Early Reduction No [15]: 7
Week 48 Partial Remission No Early Drop [15]: 1
Early Reduction No [16]: 2
No Week 48 Partial Remission Early Drop [16]: 9
No Week 48 Partial Remission No Early Drop [16]: 2
No Week 48 Partial Remission Early Drop (15% reduction in UPCR, Week 48, 39.5 mg BID): 10
Early Reduction No [17]: 33
No Week 48 Partial Remission Early Drop [17]: 8
No Week 48 Partial Remission No Early Drop [17]: 16
Early Reduction No [18]: 34
No Week 48 Partial Remission No Early Drop [18]: 10
No Week 48 Partial Remission No Early Drop [19]: 11
Week 48 Partial Remission No Early Drop [19]: 10
No Week 48 Partial Remission Early Drop [20]: 11
No Week 48 Partial Remission No Early Drop [20]: 7
Week 48 Partial Remission No Early Drop (20% reduction in UPCR, Week 6, 39.5 mg BID): 10
No Week 48 Partial Remission Early Drop [21]: 11
No Week 48 Partial Remission No Early Drop [21]: 8
Early Reduction No [22]: 10
No Week 48 Partial Remission No Early Drop [22]: 4
Early Reduction No [23]: 7
Week 48 Partial Remission No Early Drop [23]: 2
Early Reduction No [24]: 9
No Week 48 Partial Remission No Early Drop [24]: 4
Early Reduction No [25]: 9
Week 48 Partial Remission No Early Drop [25]: 3
Early Reduction No (20% reduction in UPCR, Week 16, 39.5 mg BID): 11
Early Reduction No [26]: 4
No Week 48 Partial Remission No Early Drop [26]: 4
Early Reduction No [27]: 9
Week 48 Partial Remission No Early Drop [27]: 4
Early Reduction No [28]: 4
No Week 48 Partial Remission Early Drop [28]: 11
No Week 48 Partial Remission No Early Drop [28]: 3
Week 48 Partial Remission No Early Drop [28]: 1
Early Reduction No (20% reduction in UPCR, Week 24, 39.5 mg BID): 11
Early Reduction No [29]: 3
No Week 48 Partial Remission Early Drop [29]: 9
No Week 48 Partial Remission No Early Drop [29]: 3
Early Reduction No [30]: 4
No Week 48 Partial Remission No Early Drop [30]: 4
Early Reduction No [31]: 4
No Week 48 Partial Remission Early Drop [31]: 10
No Week 48 Partial Remission No Early Drop [31]: 3
Week 48 Partial Remission No Early Drop [31]: 1
Early Reduction No [32]: 8
Week 48 Partial Remission No Early Drop [32]: 2
Early Reduction No [33]: 2
No Week 48 Partial Remission Early Drop [33]: 9
No Week 48 Partial Remission No Early Drop [33]: 2
No Week 48 Partial Remission Early Drop (20% reduction in UPCR, Week 48, 39.5 mg BID): 10
No Week 48 Partial Remission Early Drop [34]: 8
No Week 48 Partial Remission No Early Drop [34]: 16
No Week 48 Partial Remission No Early Drop [35]: 10
Week 48 Partial Remission Early Drop [35]: 33
No Week 48 Partial Remission No Early Drop [36]: 11
Week 48 Partial Remission No Early Drop [36]: 11
Week 48 Partial Remission No Early Drop (25% reduction in UPCR, Week 4, 39.5 mg BID): 16
No Week 48 Partial Remission Early Drop [37]: 10
No Week 48 Partial Remission No Early Drop [37]: 8
Week 48 Partial Remission No Early Drop [37]: 8
No Week 48 Partial Remission Early Drop [38]: 10
No Week 48 Partial Remission No Early Drop [38]: 9
Early Reduction No [39]: 10
No Week 48 Partial Remission No Early Drop [39]: 4
Early Reduction No [40]: 10
Week 48 Partial Remission No Early Drop [40]: 4
Early Reduction No [41]: 9
No Week 48 Partial Remission No Early Drop [41]: 4
Early Reduction No [42]: 10
No Week 48 Partial Remission Early Drop [42]: 11
No Week 48 Partial Remission No Early Drop [42]: 7
Week 48 Partial Remission No Early Drop [42]: 3
Week 48 Partial Remission No Early Drop (25% reduction in UPCR, Week 16, 39.5 mg BID): 7
No Week 48 Partial Remission Early Drop [43]: 11
Week 48 Partial Remission No Early Drop [43]: 1
Early Reduction No [44]: 9
Week 48 Partial Remission No Early Drop [44]: 4
Early Reduction No [45]: 4
No Week 48 Partial Remission Early Drop [45]: 11
No Week 48 Partial Remission No Early Drop [45]: 3
Week 48 Partial Remission No Early Drop [45]: 1
No Week 48 Partial Remission No Early Drop [46]: 7
Week 48 Partial Remission No Early Drop [46]: 7
Early Reduction No (25% reduction in UPCR, Week 26, 23.7 mg BID): 4
